“And” between values parts separate entries of the source, which are not always exact repeats. Equal values may be shown once.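 Dose response: 5 concentrations. Exposure: 48 h. Format: 96-well plates. Endpoint: linear interpolation; highest concentration if not reached. Abbreviation: GI50, concentration required for 50% inhibition of growth. TGI: concentration producing complete growth inhibition.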

Some test systems named below: 786-0 renal; ACHN renal; IGROV1 ovarian; NCI-H23 lung; OVCAR-5 ovarian; SF-268 CNS; SK-OV-3 ovarian; SNB-19 CNS; UO-31 renal; RPMI-8226 leukemia.
Holding throughout (test): NCI anticancer screen, dose series, 48 h

As to `Cc1ccc(C(=O)C#Cc2c[nH]c(=O)[nH]c2=O)cc1`, the TGI with 786-0 renal turned out to be 26.2 µM; in the assay on ACHN renal it was 29 µM; with IGROV1 ovarian, 31.2 µM; in the assay with NCI-H23 lung, 39.6 µM; in the assay with OVCAR-5 ovarian, 33 µM; with SF-268 CNS, 26.2 µM. Also, the figures for the TGI in the assay on SK-OV-3 ovarian, in the assay on SNB-19 CNS and in the assay with UO-31 renal were 73.6 µM, 43 µM and 37.7 µM, respectively.

Take `NC(=O)Nc1c([N+](=O)[O-])cc(C(F)(F)F)cc1[N+](=O)[O-]`: the TGI in the assay on 786-0 renal, in the assay on ACHN renal, in the assay with IGROV1 ovarian, in the assay on NCI-H23 lung, in the assay on OVCAR-5 ovarian and with RPMI-8226 leukemia was more than 100 µM each time. For the same compound, the TGI in the assay on SF-268 CNS, in the assay on SNB-19 CNS and with UO-31 renal was more than 100 µM in each case.

With `Cc1cc(=O)oc2c(OS(C)(=O)=O)c(OS(C)(=O)=O)ccc12`, the TGI in the assay on 786-0 renal, with ACHN renal, with IGROV1 ovarian, in the assay with NCI-H23 lung, with OVCAR-5 ovarian and in the assay on RPMI-8226 leukemia was more than 100 µM in each case. The TGI in the assay on SF-268 CNS, with SNB-19 CNS and in the assay with UO-31 renal was more than 100 µM throughout.

Consider `O=C1OC(c2ccccc2)=N/C1=C\c1cc(Cl)ccc1Cl`, for which the TGI with 786-0 renal, in the assay on ACHN renal, with IGROV1 ovarian, in the assay on NCI-H23 lung, in the assay on OVCAR-5 ovarian and with RPMI-8226 leukemia was more than 100 µM each time. Besides, the TGI in the assay with SF-268 CNS, in the assay with SNB-19 CNS and in the assay with UO-31 renal was more than 100 µM in each case.

With `Clc1ccc(C2=NN[C@H](c3cn(-c4ccccc4)nc3-c3ccccc3)C2)cc1`, the GI50 with 786-0 renal is 4.88 µM; in the assay with IGROV1 ovarian it was 6.28 µM; with NCI-H23 lung, 5.27 µM; with RPMI-8226 leukemia, 14.1 µM; with SF-268 CNS it was 5.71 µM; in the assay with SK-OV-3 ovarian, 2.74 µM. Also, the values for the GI50 with SNB-19 CNS and with UO-31 renal were 7.08 µM and 12.8 µM, respectively. Moreover, the TGI in the assay on 786-0 renal is 18.6 µM; with IGROV1 ovarian, 33.2 µM; with NCI-H23 lung, 23.4 µM; with RPMI-8226 leukemia, more than 100 µM; in the assay with SF-268 CNS, 21.2 µM; in the assay with SK-OV-3 ovarian it was 8.75 µM. Moreover, the TGI in the assay on SNB-19 CNS was 24.8 µM; in the assay with UO-31 renal, more than 100 µM.

On to `C=C(C)[C@@H]1CC[C@]2(C(=O)O)CC[C@]3(C)[C@H](CC[C@@H]4[C@@]5(C)C/C(=C/c6ccc(OC)cc6)C(=O)C(C)(C)[C@@H]5CC[C@]43C)[C@@H]12`, for which the GI50 with 786-0 renal was 2.83 µM; with ACHN renal, 2.77 µM; with IGROV1 ovarian, 2.15 µM; in the assay with NCI-H23 lung, 2.44 µM; in the assay with OVCAR-5 ovarian it was 3.2 µM; with SF-268 CNS, 2.85 µM. In addition, the GI50 was 3.29 µM in the assay on SK-OV-3 ovarian, 3.07 µM in the assay on SNB-19 CNS and 1.45 µM with UO-31 renal. Further, the TGI in the assay on 786-0 renal is 12.1 µM; in the assay with ACHN renal it was 10.5 µM; with IGROV1 ovarian, 7.3 µM; with NCI-H23 lung, 8.25 µM; with OVCAR-5 ovarian, 12 µM; with SF-268 CNS, 17.4 µM. For the same compound, the TGI in the assay on SK-OV-3 ovarian was 16.1 µM; with SNB-19 CNS, 17 µM; with UO-31 renal, 4.42 µM.

`Cc1sc(NC2=NC(=O)/C(=C\c3ccccc3)S2)nc1-c1nc(NC2=NC(=O)/C(=C\c3ccccc3)S2)sc1C`: the GI50 was 11.4 µM with 786-0 renal; 12.4 µM with ACHN renal; 23 µM in the assay with IGROV1 ovarian; 15.4 µM with NCI-H23 lung; 26.2 µM with OVCAR-5 ovarian; 8.45 µM with RPMI-8226 leukemia. For the same compound, the GI50 in the assay on SF-268 CNS is 14.7 µM; in the assay with SNB-19 CNS, 26 µM; with UO-31 renal, 24.9 µM. Further, the TGI in the assay with 786-0 renal was 33.4 µM; with ACHN renal, more than 32.6 µM; in the assay with IGROV1 ovarian, more than 50 µM; with NCI-H23 lung, more than 41.4 µM; in the assay on OVCAR-5 ovarian, more than 50 µM; in the assay with RPMI-8226 leukemia it was 31.6 µM. For the same compound, the TGI in the assay with SF-268 CNS is 49.4 µM; in the assay with SNB-19 CNS it was more than 50 µM; in the assay on UO-31 renal it was more than 44.4 µM.

Consider `COC(=O)C1=C(c2ccc3c(c2)OCO3)OC(c2ccc3c(c2)OCO3)C1` (centres undefined), for which the TGI in the assay with 786-0 renal, in the assay with ACHN renal, in the assay with IGROV1 ovarian, with NCI-H23 lung, with OVCAR-5 ovarian and in the assay on RPMI-8226 leukemia was more than 100 µM in each case. For the same compound, the TGI in the assay with SF-268 CNS, in the assay on SK-OV-3 ovarian and with UO-31 renal was more than 100 µM throughout.

In the case of `COc1ccc(-c2nc(N3CCOCC3)c3sc(CN(C)c4ncc(C(=O)NO)cn4)cc3n2)cn1`, the GI50 with 786-0 renal was 0.0313 µM; with ACHN renal, less than 0.01 µM; in the assay on IGROV1 ovarian, less than 0.01 µM; with NCI-H23 lung it was 0.0103 µM; with OVCAR-5 ovarian it was less than 0.01 µM; in the assay on RPMI-8226 leukemia it was less than 0.01 µM. The results for the GI50 with SF-268 CNS, in the assay on SNB-19 CNS and with UO-31 renal were 0.0178 µM, less than 0.01 µM and less than 0.01 µM, respectively. Further, the TGI in the assay on 786-0 renal came out at 0.171 µM; in the assay on ACHN renal it was 0.0345 µM; in the assay on IGROV1 ovarian, 0.0439 µM; with NCI-H23 lung it was 0.601 µM; in the assay with OVCAR-5 ovarian, 0.0419 µM; in the assay on SF-268 CNS, 0.204 µM. The results for the TGI with SNB-19 CNS and in the assay on UO-31 renal were 0.0907 µM and 0.0705 µM, respectively.

In the case of `CCOC(=O)NC(=O)c1cn(CCCOC(=O)NCCCCCCNC(=O)OCCCn2cc(C(=O)NC(=O)OCC)c(=O)[nH]c2=O)c(=O)[nH]c1=O`, the TGI in the assay with 786-0 renal is 49.9 µM; in the assay on ACHN renal, 32.9 µM; in the assay with IGROV1 ovarian it was more than 100 µM; with RPMI-8226 leukemia it was 39.2 µM; in the assay on SK-OV-3 ovarian it was more than 100 µM; with SNB-19 CNS, 77.6 µM.

For `Oc1ccc(-c2cn3cc(Cl)sc3n2)cc1`, the GI50 was 18.2 µM with 786-0 renal; 3.98 µM in the assay on ACHN renal; 67.7 µM in the assay on IGROV1 ovarian; 16.5 µM in the assay with RPMI-8226 leukemia; 12.2 µM in the assay on SF-268 CNS; 58.8 µM in the assay on SNB-19 CNS. Besides, in the assay with UO-31 renal, the GI50 is more than 100 µM. Besides, the TGI is 67.1 µM in the assay with 786-0 renal; 24.6 µM in the assay with ACHN renal; more than 100 µM in the assay on IGROV1 ovarian; 40.7 µM with RPMI-8226 leukemia; 80.2 µM in the assay on SF-268 CNS; more than 100 µM in the assay with SNB-19 CNS. Moreover, the TGI with UO-31 renal was more than 100 µM.

As for `COC1=C2C[C@@H](C)C[C@@H](OC)[C@@H](O)[C@H](C)/C=C(\C)[C@@H](OC(N)=O)[C@H](OC)/C=C\C=C(/C)C(=O)NC(=CC1=O)C2=O`, the TGI with 786-0 renal was 8.21 µM and 6.04 µM and 13.7 µM; with SK-OV-3 ovarian it was 37.5 µM and 18 µM and 8.19 µM; in the assay with SNB-19 CNS, 28 µM and 26.5 µM and 10.4 µM.

With `Cc1ccc(NC2=C(Cl)C(=O)N(Cc3ccccc3)C2=O)cc1Cl`, the GI50 in the assay with 786-0 renal was 6.39 µM; in the assay on ACHN renal, 11.1 µM; in the assay with NCI-H23 lung, 4.13 µM; in the assay with OVCAR-5 ovarian, 15.7 µM; with RPMI-8226 leukemia, 0.454 µM; in the assay on SF-268 CNS, 3.28 µM. The GI50 with SK-OV-3 ovarian is 19.4 µM; with SNB-19 CNS it was 11.2 µM; in the assay on UO-31 renal, 3.33 µM. The TGI with 786-0 renal came out at 21 µM; in the assay on ACHN renal it was 26.6 µM; with NCI-H23 lung, 14.6 µM; with OVCAR-5 ovarian, 43.3 µM; with RPMI-8226 leukemia it was 3.36 µM; in the assay on SF-268 CNS, 15.1 µM. In addition, the values for the TGI with SK-OV-3 ovarian, in the assay on SNB-19 CNS and with UO-31 renal were more than 100 µM, 34.7 µM and 15.9 µM, respectively.

`O=C(O)c1cccc2cccc(C(=O)O)c12.[Hg]`: the GI50 with 786-0 renal was 15.4 µM; in the assay with ACHN renal, 17.7 µM; in the assay on IGROV1 ovarian it was 15.8 µM; in the assay on NCI-H23 lung, 15.7 µM; in the assay on OVCAR-5 ovarian, 19.4 µM; in the assay on SF-268 CNS it was 11.5 µM. The GI50 in the assay with SK-OV-3 ovarian was 19.6 µM; in the assay on SNB-19 CNS it was 15.9 µM; in the assay with UO-31 renal, 20.7 µM. In addition, the TGI was 29.1 µM in the assay with 786-0 renal; 31.8 µM in the assay on ACHN renal; 29.2 µM with IGROV1 ovarian; 29.9 µM in the assay on NCI-H23 lung; 33.5 µM in the assay with OVCAR-5 ovarian; 26.5 µM with SF-268 CNS. In addition, the values for the TGI in the assay on SK-OV-3 ovarian, in the assay on SNB-19 CNS and with UO-31 renal were 33.9 µM, 29.7 µM and 35 µM, respectively.

On to `COc1cc(Nc2nc3cc(C(F)(F)F)ccc3nc2-c2ccccc2)cc(OC)c1OC`, for which the TGI in the assay with 786-0 renal, in the assay on ACHN renal, with IGROV1 ovarian, in the assay with NCI-H23 lung, with OVCAR-5 ovarian and with SF-268 CNS was more than 100 µM in each case. The TGI with SK-OV-3 ovarian and in the assay with UO-31 renal was more than 100 µM in each case.

As for `NC(=O)CCC(NC(=O)Cc1ccccc1)C(=O)O` (centres undefined) (tested in a mixture with another compound), the TGI with 786-0 renal, in the assay with IGROV1 ovarian, in the assay on NCI-H23 lung, with OVCAR-5 ovarian, with RPMI-8226 leukemia and with SF-268 CNS was more than 8130 µM in each case. The TGI in the assay on SK-OV-3 ovarian was more than 8130 µM; in the assay on SNB-19 CNS, more than 8130 µM; in the assay with UO-31 renal it was 2100 µM and > 8130 µM.

For `COc1ccc(-c2cc(-c3cc(C)ccc3O)[nH]c(=O)n2)cc1`, the TGI with 786-0 renal, in the assay on ACHN renal, in the assay on IGROV1 ovarian, in the assay with NCI-H23 lung, in the assay on RPMI-8226 leukemia and in the assay with SF-268 CNS was more than 100 µM in each case. Further, the TGI with SK-OV-3 ovarian, in the assay with SNB-19 CNS and with UO-31 renal was more than 100 µM each time.
